# pIC50: −log10 of the molar value.
# Experiments:
# [1] = Lactobacillus toxicity testing (all strains, summary); format: cell-based; conditions: Lactobacillus (L. crispatus and L. jensenii), suspensions of vaginal commensal Lactobacillus strains; vaginal commensal bacteria Lactobacilli
# Method: (§1) Reference strains of L. crispatus and L. jensenii were obtained from the ATCC (Manassas, Va.) and cultured on Columbia blood agar plates at 35° C. in air enriched with 6% CO2. Bacterial suspensions were prepared in saline or ACES buffer to a density of 2 McFarland units (˜2×10^8 bacteria/mL), and exposed to PD (300 μM) or DMSO (10%) for 30 minutes at 37° C. After incubation, the cells were serially diluted in ACES buffer, pH 7.0 (Sigma-Aldrich, St. Louis, Mo.) and plated on blood agar plates to quantify colony forming unit per mL (CFU/mL)
# (§2) Different bacterial strains were incubated with 300 μM PD or solvent DMSO-containing control media at 37° C. for 30 min and plated on blood agar plates to estimate their corresponding colony forming units per ml (CFU/ml). Less than 1 log difference between control and test CFU is considered non-toxic 17.
# [2] = system: Lactobacilli; test: as above; format: cell-based; conditions: 300 μM PD, 37° C., 30 min
# Method: as §1, §2
# [3] = system: HIV-1 92UG005; test: HIV infectivity assay in TZM-bl cells; format: cell-based; conditions: 92UG005 (clade D, R5); for pIC50: Human immunodeficiency virus 1, TZM-bl
# [4] = system: Sindbis virus (SINV); test: Sindbis virus plaque assay on BHK-J cells; format: cell-based; conditions: 300 μM PD
# [5] = system: HIV-1 clinical isolates; test: Anti-HIV efficacy in fresh human PBMC (all isolates, summary); format: cell-based; conditions: Human immunodeficiency virus 1, PBMC; eight HIV-1 clinical isolates in PBMCs
# [6] = Cytotoxicity on human cell lines (Cell Titer-Glo); format: cell-based
# [7] = system: HIV-1 93IN101; test: HIV infectivity assay in TZM-bl cells; format: cell-based; conditions: 93IN101 (clade C, R5); for pIC50: Human immunodeficiency virus 1, TZM-bl
# [8] = system: HCVcc; format: cell-based, HCV
# [9] = Primary cells toxicity testing (LDH); format: cell-based; conditions: human, primary CD4+ T-lymphocytes, macrophages and dendritic cells, up to 14 days
# Method: Increasing concentrations were incubated with primary CD4^+ T-lymphocytes, macrophages and dendritic cells at 37° C. and the amounts of lactate dehydrogenase (LDH) present in the culture media were quantified after 0, 7 and 14 days. Error bars represent the standard deviation from two independent experiments.
# Primary cells were seeded at 6×10^3 cells/well in flat bottom 96-well plates in triplicates in the presence of increasing concentrations of PD. We used the permeabilization agent saponin (0.1%) as positive control. After 0, 7 and 14 days, the amounts of lactate dehydrogenase (LDH) in the cell culture media were quantified using the LDH Cytotoxicity Assay Kit (Cayman Chemical, Ann Arbor, Mich.).
# Cell death can occur either by apoptosis or by necrosis. Necrosis is accompanied by mitochondrial swelling and increased plasma membrane permeability, whereas apoptosis involves an articulated breakdown of the cell into membrane-bound apoptotic bodies. Lactate dehydrogenase (LDH) is a soluble cytosolic enzyme that is released into the culture medium following loss of membrane integrity resulting from either apoptosis or necrosis. LDH activity, therefore, can be used as an indicator of cell membrane integrity and serves as a general means to assess cytotoxicity resulting from chemical compounds or environmental toxic factors. […]
structure (smiles),measurement,setting,value
"N=C1Sc2ccccc2C2=NCCCN12 [PD, PD 404,182]",CC50 at 30 min,[1],> 300 µM
same,effect on Lactobacillus strains,[2],no adverse effect on all strains of bacteria tested
same,IC50 (DMEM; IC90 per footnote),[3]; PD in DMEM + 10% FBS,5.3 ± 0.4 µM
same,IC50 (Cervical Fluid; IC90 per footnote),[3]; PD in cervical fluids,5.7 ± 0.3 µM
same,IC50 (Seminal Plasma; IC90 per footnote),[3]; PD in seminal plasma,5.57 ± 0.44 µM
same,pIC50,[3]; PD in DMEM + 10% FBS,5.90
same,pIC50,[3]; PD in cervical fluids,5.86
same,pIC50,[3]; PD in seminal plasma,5.88
same,effect on infectivity of SINV,[4],no significant inhibitory effect
same,pIC50,[5],6.26
same,CC50,"[6]; HepG2, HCT-8, Huh-7, Huh-7.5, TZM, PC3 and 293T cells, seven different human cell lines",> 300 µM
same,CC50,"[6]; human, TZM-bl (HeLa) cervical cancer cells",> 300 µM
same,IC50 (DMEM; IC90 per footnote),[7]; PD in DMEM + 10% FBS,5.1 ± 0.3 µM
same,IC50 (Cervical Fluid; IC90 per footnote),[7]; PD in cervical fluids,5.5 ± 0.2 µM
same,IC50 (Seminal Plasma; IC90 per footnote),[7]; PD in seminal plasma,5.36 ± 0.37 µM
same,pIC50,[7]; PD in DMEM + 10% FBS,5.82
same,pIC50,[7]; PD in cervical fluids,5.74
same,pIC50,[7]; PD in seminal plasma,5.75
same,inhibition of HCVcc infectivity,[8],> 10 fold
same,CC50 at 14 days,[9],> 300 µM

# Reference: US20140227335A1 (priority 2012, published 2014)
